This is an account of results in US20120245107A1, “METHODS OF REDUCING THE PROLIFERATION AND VIABLILITY OF MICROBIAL AGENTS” (Targeted Delivery Technologies Limited, priority 2009, published 2012).

Converted amounts (≈) assume the structure as drawn. Where two headings read alike, the source gives them in different places.

What all share (type): cell-based
Assay [1] concerns Candida albicans. Kind of assay: Minimum inhibitory concentration (MIC100), CLSI M38-A2 broth dilution. The procedure:
Several strains of Aspergillus flavus, Aspergillus fumigatus, and Candida albicans were tested. Trichophyton rubrum MYA4498 and T. mentagrophytes MYA4439, the QC isolates approved by the Clinical and Laboratory Standards Institute (CLSI) for dermatophyte susceptibility testing, can also be tested.
(§1) MIC testing was performed according to the CLSI M38A2 standard for the susceptibility testing of dermatophytes developed at the Center for Medical Mycology (See, Ghannoum et al., 2004, J Clin Microbial. 42(7): 2977-2979 CLSI, Reference Method for Broth Dilution Antifungal Susceptibility Testing of Filamentous Fungi: Approved Standard-Second Edition. CLSI document M38-A2 [ISBN 1-56238-668-9]. CLSI, 940 West Valley Road, Suite 1400, Wayne, Pa. 19087-1898 USA, 2008). Briefly, RPMI was the test medium, incubation temperature and time was 35° C. and 24 hours or 48 hours, respectively, and the inoculum size was 1-3×10^3 conidia/ml. The MIC endpoint was 100% inhibition as compared to the growth control.
The MIC range, MIC100 (defined as the minimum concentration required to inhibit 100% of the isolates tested), for the antifungal preparations of the invention and comparators was computed. The MFC range, MFC50, MFC90, and MFC100 for the antifungal preparations of the invention and comparators can also be computed.
Similarly, the lowest concentration (μg/mL) of a fluconazole formulation of the invention was compared to flucanozole alone that is required to inhibit 100% growth of various isolates of Candida albicans (MIC100) was determined (see Table 14). In this example, the fluconazole formulation of the invention comprises fluconazole formulated with a phosopholipid and a surfactant.
In general terms: Broth dilution looks for growth in wells or tubes with falling amounts of substance.

In assay [2] the test system is Aspergillus flavus. Kind of assay: MIC100 of voriconazole and terbinafine formulation individually and in combination, FICI. The conditions noted are these: for MIC100, Combination: concentration of the agent when voriconazole and terbinafine formulation are used in combination; for MIC: Aspergillus flavus, agent used individually, read-out: MIC100, Individual. The procedure:
as §1
(§2) The lowest concentration (μg/mL) of either a terbinafine formulation of the invention or voriconazole, when used in combination, that is required to inhibit 100% of various isolates of Aspergillus flavus and Aspergillus fumigatus (MIC100) was determined (see Table 15). In this example, the terbinafine formulation of the invention comprises terbinafine formulated with a phospholipid and a surfactant.
(§3) Depicted in Table 15, the Fractional Inhibitory […] Index (FWD measures the degree of interaction between the two antifungal agents. A FICI value of greater than 4 indicates an antagonistic interaction; a FICI value of between 0.5 and 4 indicates no interaction; and a FICI value of less than 0.5 indicates a synergistic interaction. As depicted in Table 15, a lower concentration of either voriconazole or terbinafine formulation is generally able to inhibit 100% growth of various isolates of Aspergillus fumigatus and Aspergillus flavus when both antifungal agents are used in combination than the concentration required to inhibit 100% growth of various isolates of Aspergillus fumigatus and Aspergillus flavus when either voriconazole or terbinafine formulation is used individually.

Assay [3] concerns Aspergillus fumigatus. The assay is described as above. The conditions noted are these: for MIC100, Combination: concentration of the agent when voriconazole and terbinafine formulation are used in combination; for MIC: Aspergillus fumigatus, agent used individually, read-out: MIC100, Individual. The procedure:
as §1, §2, §3

Setting [4] is: A. fumigatus strain MRL No. 2456.
Setting [5] is: A. fumigatus strain MRL No. 2471.
The mark [6] stands for this setting: A. fumigatus strain MRL No. 2574.
The mark [7] stands for this setting: A. fumigatus strain MRL No. 16627.
The mark [8] stands for this setting: A. fumigatus strain MRL No. 16629.

For `OC(Cn1cncn1)(Cn1cncn1)c1ccc(F)cc1F` [Flucanozole, fluconazole], the MIC in assay [1] (C. albicans strain MRL No. 648) was more than 64 µg/mL; in assay [1] (C. albicans strain MRL No. 9650), more than 128 µg/mL; in assay [1] (C. albicans strain MRL No. 9698), 32 µg/mL (≈ 104 µM); in assay [1] (C. albicans strain MRL No. 14461), 0.25 µg/mL (≈ 0.816 µM); in assay [1] (C. albicans strain MRL No. 14465), 0.25 µg/mL (≈ 0.816 µM).

Consider `C[C@@H](c1ncncc1F)[C@](O)(Cn1cncn1)c1ccc(F)cc1F` [Voriconazole, voriconazole], for which the “MIC100, Combination” value in assay [2] (A. flavus strain MRL No. 17842) amounted to 0.12 µg/mL; in assay [2] (A. flavus strain MRL No. 18736), 0.12 µg/mL; in assay [2] (A. flavus strain MRL No. 18743) it was 0.12 µg/mL; in assay [2] (A. flavus strain MRL No. 18744), 0.03 µg/mL; in assay [3] (setting [4]), 0.06 µg/mL; in assay [3] (setting [5]) it was 0.06 µg/mL. Also, the “MIC100, Combination” value in assay [3] (setting [6]) was determined as 0.06 µg/mL; in assay [3] (setting [7]), 0.03 µg/mL; in assay [3] (setting [8]) it was 0.03 µg/mL. The MIC came to 0.25 µg/mL in assay [2] (A. flavus strain MRL No. 17842); 0.5 µg/mL in assay [2] (A. flavus strain MRL No. 18736); 0.5 µg/mL in assay [2] (A. flavus strain MRL No. 18743); 0.8 µg/mL in assay [2] (A. flavus strain MRL No. 18744); 0.12 µg/mL in assay [3] (setting [4]); 0.25 µg/mL in assay [3] (setting [5]). The MIC was determined as 0.25 µg/mL in assay [3] (setting [6]), 0.5 µg/mL in assay [3] (setting [7]) and 0.12 µg/mL in assay [3] (setting [8]).
